Reference: patent US8604055B2, “Substituted benzylamino quinolines as cholesterol ester-transfer protein inhibitors” (Dr. Reddy's Laboratories Ltd., priority 2004, dated 2013)

These molecules were tested against T1, Recombinant CETP enzyme (Homo sapiens, UniProt P11597) (assay: In vitro fluorescence-based CETP inhibition assay (BODIPY-CE transfer from donor to acceptor microemulsions)). Conditions: recombinant CETP 0.14 ng/μl; transfer of fluorescent cholesteryl ester monitored over 2 hours; vs DMSO controls.
T1 construct: purchased Cardiovascular Targets
T1 sequence (P11597 18-493): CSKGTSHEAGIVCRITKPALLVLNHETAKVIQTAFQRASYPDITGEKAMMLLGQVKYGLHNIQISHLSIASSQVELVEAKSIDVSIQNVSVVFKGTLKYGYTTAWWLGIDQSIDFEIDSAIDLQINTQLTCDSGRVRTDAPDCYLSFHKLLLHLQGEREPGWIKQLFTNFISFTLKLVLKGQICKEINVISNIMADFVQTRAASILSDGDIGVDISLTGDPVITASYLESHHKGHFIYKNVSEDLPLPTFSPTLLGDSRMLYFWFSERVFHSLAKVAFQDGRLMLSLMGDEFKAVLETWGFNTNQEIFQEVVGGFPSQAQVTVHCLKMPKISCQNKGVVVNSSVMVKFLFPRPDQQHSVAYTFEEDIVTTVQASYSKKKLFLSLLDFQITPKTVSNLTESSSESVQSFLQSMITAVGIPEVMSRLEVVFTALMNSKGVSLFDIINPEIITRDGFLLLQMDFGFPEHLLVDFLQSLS
Assay type: biochemical
Description: An in vitro fluorescence-based assay to identify CETP inhibitors was developed from modifications of the protocols outlined in Bisgaier et al., J Lipid Res., 34(9): 1625-34 (1993) and Epps et al., Chem Phys Lipids., 77(1): 51-63 (1995). Acceptor and donor lipid microemulsions were prepared according to Bisgaier et al., 1993, except that the buffer was prepared with 0.67 ug/mL human HDL (Calbiochem). Donor microemulsions contained the fluorescent cholesteryl ester analog BODIPY-CE (Molecular Probes), characterized by excitation and emission maxima at 503 nm and 518 nm, respectively. The CETP-mediated transfer of fluorescent cholesteryl ester to acceptor particles was monitored over a 2-hour time period using the FAM filter set (excitation 492 nm, emission 516 nm) in an MX3000P fluorescent plate reader (Stratagene). Recombinant CETP enzyme (Cardiovascular Targets) was used at 0.14 ng/μl, final concentration, to achieve lipid transfer. CETP inhibition by compounds was compared to DMSO controlsand graphed as a percentage of the control CETP activity over 2 hours. The IC50 curves for CETP inhibition were generated from the activity profiles. Active compounds were also tested for CETP inhibition as above, but in the presence of 3% human serum albumin, fraction V (Calbiochem).

Compound	IC50
CCCCN(CC)c1nc2ccccc2cc1CN(Cc1cc(C(F)(F)F)cc(C(F)(F)F)c1)C(=O)OCC [Example 41, (3,5-bis-trifluoromethyl-benzyl)-[2-(butyl-ethyl-amino)-quinolin-3-ylmethyl]-carbamic acid ethyl ester]	≤ 5000 nM
CCN(CC1CCCC1)c1nc2ccccc2cc1CN(Cc1cc(C(F)(F)F)cc(C(F)(F)F)c1)Cc1nnn(C)n1 [Example 70, (3-{[(3,5-bis-trifluoromethyl-benzyl)-(2-methyl-2H-tetrazol-5-ylmethyl)-amino]-methyl}-quinolin-2-yl)-cyclopentylmethyl-ethyl-amine]	≤ 5000 nM
CCN(CC1CCCC1)c1nc2c(cc1CN(Cc1cc(C(F)(F)F)cc(C(F)(F)F)c1)C(=O)OC)CCC2 [Example 75, (3,5-bis-trifluoromethyl-benzyl)-[2-(cyclopentylmethyl-ethyl-amino)-6,7-dihydro-5H-[1]pyridin-3-ylmethyl]-carbamic acid methyl ester]	≤ 5000 nM
CCN(CC1CCCC1)c1nc2ccc(C)cc2cc1CN(Cc1cc(C(F)(F)F)cc(C(F)(F)F)c1)C(=O)OC [Example 46, (3,5-bis-trifluoromethyl-benzyl)-[2-(cyclopentylmethyl-ethyl-amino)-6-methyl-quinolin-3-ylmethyl]-carbamic acid methyl ester]	≤ 5000 nM
CCN(CC1CCCC1)c1nc2onc(C)c2cc1CN(Cc1cc(C(F)(F)F)cc(C(F)(F)F)c1)C(=O)OC [Example 32, (3,5-bis-trifluoromethyl-benzyl)-[6-(cyclopentylmethyl-ethyl-amino)-3-methyl-isoxazolo[5,4-b]pyridine-5-ylmethyl}-carbamic acid methyl ester]	≤ 1000 nM
CCN(CC1CCCC1)c1nc2ccccc2cc1CN(Cc1cc(C(F)(F)F)cc(C(F)(F)F)c1)c1nc(C)cs1 [Example 63]	≤ 5000 nM

Continued, values first:

IC50	Compound
≤ 1000 nM	Cc1cccc2cc(CN(Cc3cc(C(F)(F)F)cc(C(F)(F)F)c3)c3nnn(CCO)n3)c(N(CC3CC3)CC3CC3)nc12 [Example 93, 2-{5-[[2-(bis-cyclopropylmethyl-amino)-8-methyl-quinoline-3-ylmethyl]-(3,5-bistrifluoromethyl-benzyl)-amino]-tetrazol-2-yl}-ethanol]
≤ 1000 nM	CCN(CC1CCCC1)c1nc2c(cc1CN(Cc1cc(C(F)(F)F)cc(C(F)(F)F)c1)c1nnn(C)n1)CCCC2 [Example 77]
≤ 1000 nM	CCN(c1nc2c(cc1CN(Cc1cc(C(F)(F)F)cc(C(F)(F)F)c1)c1nnn(C)n1)c(C)nn2C)C(C)C [Example 7, (5-{[(3,5-bis-trifluoromethyl-benzyl)-(2-methyl-2H-tetrazole-5-yl)-amino]-methyl}-1,3-dimethyl-1H-pyrazolo[3,4-b]pyridin-6-yl)-ethyl-isopropyl-amine]
≤ 1000 nM	CCN(CC1CCC1)c1nc2ccccc2cc1CN(Cc1cc(C(F)(F)F)cc(C(F)(F)F)c1)c1cc(C)on1 [Example 65, (3-{[3,5-bis-trifluoromethyl-benzyl-(5-methyl-isoxazol-3-yl)-amino]-methyl}-quinolin-2-yl)-cyclobutylmethyl-ethyl-amine]
≤ 1000 nM	CCN(CC1CCCC1)c1nc2c(cc1CN(Cc1cc(F)cc(C(F)(F)F)c1)c1nnn(C)n1)c(C)nn2C [Example 20, cyclopentylmethyl-ethyl-(5-{[(3-fluoro-5-trifluoromethyl-benzyl)-(2-methyl-2H-tetrazol-5-yl)-amino]-methyl}-1,3-dimethyl-1H-pyrazolo[3,4-b]pyridin-6-yl)-amine]
≤ 1000 nM	CCN(CC1CC1)c1nc2c(cc1CN(Cc1cc(C(F)(F)F)cc(C(F)(F)F)c1)c1nnn(C)n1)c(C)nn2C [Example 3, (5-{[(3,5-bis-trifluoromethyl-benzyl)-(2-methyl-2H-tetrazole-5-yl)-amino]-methyl}-1,3-dimethyl-1H-pyrazolo[3,4-b]pyridin-6-yl)-cyclopropylmethyl-ethyl-amine]
